# How the values were obtained:
# animal models of PD = settings: previously reported; cited from earlier work
# hemiparkinsonian mice = test: Abnormal Involuntary Movements (AIMs) after chronic L-DOPA, Example 5; assay type: in vivo; settings: daily L-DOPA (mixed with benserazide) injections, post-testing 15 days
# Description: Mice were anesthetized with 5% isoflurane (Isothesia, Henry Schein Animal Health, Dublin, Ohio) in 100% oxygen with a delivery rate of 51/minute until loss of righting reflex and mounted on a stereotaxis. The anesthesia was maintained with 1 to 1.5% isoflurane throughout the surgical procedure. Body temperature was maintained using heating pads; respiration was monitored every 10 minutes. Mice were treated with desipramine HCl (25 mg/kg i/p) 30 minutes before the infusion of 6-hydroxydopamine (6-OHDA). […]
# Measurement of Abnormal Involuntary Movements (AIMs) were quantified after chronic L-DOPA administration in hemiparkinsonian mice. In the pretesting sessions, mice were given daily injections of L-DOPA/benserazide (5/10 mg/Kg s/c) for 9 days; AIMs were assessed every 20 minutes for 3 hrs after injection every third day of L-DOPA injections. Total duration of contralateral abnormal movements of the tongue-orofacial muscles and forelimb, twisting of the body (dystonia), and locomotor (rotational) behavior were scored, as illustrated in FIG. 6E. […] After five days' rest, in the post-test phase, mice were administered DOPA-benserazide or one of the four ranitidine formulations (Form IA, IB, IIA, or IIB, as defined above) daily for 15 days; AIMs were again assessed every third day.
# Western blots were quantified using band densitometry in Image J software (NIH version). […]
# 6-OHDA lesioned mice = test: Cylinder test, contralateral paw usage (akinesia); assay type: in vivo; settings: single dose equivalent to 5 mg/Kg DOPA; DOPA = L-DOPA/Benserazide 5 and 10 mg/Kg s/c
# pERK, ChAT and H2R = test: Immunohistochemical co-localization of pERK, ChAT and H2R in striatum; assay type: in vivo, mice; settings: lesioned striatum
# Description: Immunohistochemical analysis was performed with commonly known procedures. Mice were transcardially perfused with ice-cold 4% paraformaldehyde in PBS 45 minutes after challenge with L-DOPA or DOPA-ranitidine formulations. The brain was dissected out, post-fixed in 4% PFA overnight at 4° C., and cryoprotected using 30% sucrose in PBS. Cryoprotected brains were stored at -80° C. For TH immunostaining 30 μm coronal sections were taken around both CPu and substantia nigra, to examine dopaminergic denervation at the level of striatum and neuronal cell body loss at the level of substantia nigra. For pERK, ChAT, FoxP and AFos B expression, only coronal sections at the level of striatum was used. Free-floating coronal sections were blocked in blocking buffer (PBS with 2% BSA, 0.3% TritonX-100) for 1 hr at room temperature with gentle rocking. Sections were then transferred to incubation solution (PBS with 1% BSA, 0.03% TritonX-100) and the respective primary antibody as shown in table 1 and incubated at 4° C. for 24-48 hrs with gentle shaking. The sections were mounted with fluorescein or DAPI containing mounting media and serial z stack images were taken using Zeiss laser scanning confocal microscope LSM 800 at Stanford Cell Sciences Imaging facility. […]
Structure (SMILES),L-DOPA induced dyskinesia (dyskinetic behavior following DOPA treatment) (animal models of PD),AIMs over the course of daily administration (hemiparkinsonian mice),contralateral paw usage compared to saline treatment (6-OHDA lesioned mice),"triple labeling of pERK, ChAT and H2R (pERK, ChAT and H2R)"
"CN/C(=C\[N+](=O)[O-])NCCSCc1ccc(CN(C)C)o1 [Ranitidine, N-(2-[(5-[(dimethylamino)methyl]furan-2-yl)methylthio]ethyl)-N′-methyl-2-nitroethene-1,1-diamine]",suppress LID,–,–,–
"N[C@@H](Cc1ccc(O)c(O)c1)C(=O)O [L-DOPA, L-3,4-dihydroxyphenylalanine]",–,increasing AIMs,significantly increased contralateral paw usage,Occasional triple labeling
